Measurements published in patent publication US20250387270A1, “DEVICES AND METHODS FOR WOUND TREATMENT” (APPLIED TISSUE TECHNOLOGIES LLC, priority 2016, published 2025).

Legend:
common bacteria = details: typical value for common bacteria; cited from earlier work
[1] = Stability of antibiotic drug activity in 0.5% (agarose) hydrogel over time; format: physicochemical; details: antibiotic in 0.5% (agarose) hydrogel, compare with original concentration
From the text: According to Table 1, gel-therapeutic agent preparations comprising an antibiotic and a 0.5% (agarose) hydrogel may be stable for up to one week. Drugs dissolve passively into the gel and stay stable over time. In some embodiments, the gel-therapeutic agent preparation may further comprise saline. The gel may be biocompatible, meaning that it is structurally similar to the extracellular matrix in tissues. The gel may be flowable, allowing either for, for example, casting into a mold or injection via needle through a port. The loading of the […] agent preparation in the device may allow consistent and uniform contact with the skin even with patient movement, maintaining continuous delivery of the therapeutic agent to the underlying tissue. The gel-therapeutic agent preparation may prevent loss of the therapeutic agent in the event of a minor leak in the adhesive of the device.

| Compound | MIC (common bacteria) | Drug activity, 3 days ([1]; 3 days) [µg/mL] | Drug activity, 7 days ([1]; 7 days) [µg/mL] |
| --- | --- | --- | --- |
| CN[C@H](CC(C)C)C(=O)N[C@H]1C(=O)N[C@@H](CC(N)=O)C(=O)N[C@H]2C(=O)N[C@H]3C(=O)N[C@H](C(=O)N[C@H](C(=O)O)c4cc(O)cc(O)c4-c4cc3ccc4O)[C@H](O)c3ccc(c(Cl)c3)Oc3cc2cc(c3O[C@@H]2O[C@H](CO)[C@@H](O)[C@H](O)[C@H]2O[C@H]2C[C@](C)(N)[C@H](O)[C@H](C)O2)Oc2ccc(cc2Cl)[C@H]1O [Vancomicin] | around 2 micrograms per ml |  |  |
| Gentamicin | around 2 micrograms per ml | 2.41 | 2.04 |
